Square brackets hold non-standard residues; d marks the D form. Peptide text beside a SMILES is read from it. pY = N[C@@H](Cc1ccc(OP(=O)(O)O)cc1)C(=O)O; Ahp = NCCCCCCC(=O)O

The nature of this experiment: Binding affinity against c-Src tyrosine kinase SH2 domain expressed as ratio of IC50 of test compound over IC50 of AcYEEIE.
For `CCCCCN(CCCCC)C(=O)[C@H](CCSC)NC(=O)[C@H](Cc1ccc(OP(=O)(O)O)cc1)NC(C)=O`, the Ratio was 16.5.

In the case of `CC(=O)N[C@@H](Cc1ccc(OP(=O)(O)O)cc1)C(=O)N[C@@H](CCC(=O)O)C(=O)NCCc1c[nH]c2ccc(O)cc12`, the Ratio came to 31.5.

On to `CCCCCN(CCCCC)C(=O)[C@H](CCC(=O)O)NC(=O)[C@H](Cc1ccc(OP(=O)(O)O)cc1)NC(=O)CSCc1ccccc1`, for which the Ratio is 18.9.

Regarding `CCCCCN(CCCCC)C(=O)[C@H](CCC(=O)O)NC(=O)[C@H](Cc1ccc(OP(=O)(O)O)cc1)NC(=O)Nc1ccc([N+](=O)[O-])cc1`, the Ratio came to 184.

For `CC(=O)N[C@@H](Cc1ccc(OP(=O)(O)O)cc1)C(=O)N[C@@H](CCC(=O)O)C(N)=O` (Ac-[pY]-Glu-NH2), the Ratio stood at 200.

On to `CCCCCN(CCCCC)C(=O)[C@H](CCC(=O)O)NC(=O)[C@H](Cc1ccc(OP(=O)(O)O)cc1)NC(=O)CCc1ccc(O)cc1`, for which the Ratio came to 26.7.

Turning to `CCCCCN(CCCCC)C(=O)[C@H](CCC(=O)O)NC(=O)[C@H](Cc1ccc(OP(=O)(O)O)cc1)NC(=O)CCc1ccccc1`, the Ratio was found to be 10.8.

As to `CCCCCN(CCCCC)C(=O)[C@H](CSC)NC(=O)[C@H](Cc1ccc(OP(=O)(O)O)cc1)NC(C)=O`, the Ratio was 33.1.

For `CC(=O)N[C@@H](Cc1ccc(OP(=O)(O)O)cc1)C(=O)N[C@@H](CCC(=O)O)C(=O)NCCCCCCC(N)=O` (Ac-[pY]-Glu-[Ahp]-NH2), the Ratio turned out to be 115.

For `CCCCCCCN(CCCCCCC)C(=O)[C@H](CCC(=O)O)NC(=O)[C@H](Cc1ccc(OP(=O)(O)O)cc1)NC(C)=O`, the Ratio amounted to 327.

With `CCCCCN(CCCCC)C(=O)[C@H](CCC(=O)O)NC(=O)[C@H](Cc1ccc(OP(=O)(O)O)cc1)NC(=O)COCc1ccccc1`, the Ratio is 32.7.

`CCCCCN(CCCCC)C(=O)[C@H](CCC(=O)O)NC(=O)[C@H](Cc1ccc(OP(=O)(O)O)cc1)NC(=O)c1ccc(C(F)(F)F)cc1`: the Ratio is 25.4.

On to `CCCCCN(CCCCC)C(=O)[C@H](CCC(=O)O)NC(=O)[C@H](Cc1ccc(OP(=O)(O)O)cc1)NC(=O)c1ccccc1`, for which the Ratio was 15.3.

For the compound `CC(=O)N[C@@H](Cc1ccc(OP(=O)(O)O)cc1)C(=O)N[C@@H](CCC(=O)O)C(=O)N(C)CCCc1c[nH]c2ccccc12`, the Ratio is 11.6.

For `CC(=O)N[C@@H](Cc1ccc(OP(=O)(O)O)cc1)C(=O)N[C@@H](CCC(=O)O)C(=O)NCCCCCCC(=O)O` (Ac-[pY]-Glu-[Ahp]-OH), the Ratio was determined as 36.7.

In the case of `CCCCCN(CCCCC)C(=O)[C@H](CSCc1ccccc1)NC(=O)[C@H](Cc1ccc(OP(=O)(O)O)cc1)NC(C)=O`, the Ratio is 155.

As to `CCCCCN(CCCCC)C(=O)[C@H](CCC(=O)O)NC(=O)[C@H](Cc1ccc(OP(=O)(O)O)cc1)NC(=O)Cc1ccc(CN)cc1`, the Ratio worked out at 92.1.

For the compound `CCCCCN(CCO)C(=O)[C@H](CCC(=O)O)NC(=O)[C@H](Cc1ccc(OP(=O)(O)O)cc1)NC(C)=O`, the Ratio was determined as 16.7.

For `CC(=O)N[C@@H](Cc1ccc(OP(=O)(O)O)cc1)C(=O)N[C@@H](CCC(=O)O)C(=O)O` (Ac-[pY]-Glu-OH), the Ratio worked out at 606.

On to `CC(=O)N[C@@H](Cc1ccc(OP(=O)(O)O)cc1)C(=O)N[C@@H](CCC(=O)O)C(=O)N(C)CCCc1c(C(N)=O)[nH]c2ccccc12`, for which the Ratio was 9.3.

In the case of `CCCCCNC(=O)[C@H](CCC(=O)O)NC(=O)[C@H](Cc1ccc(OP(=O)(O)O)cc1)NC(C)=O`, the Ratio amounted to 16.6.

Turning to `COc1ccc2[nH]cc(CCNC(=O)[C@H](CCC(=O)O)NC(=O)[C@H](Cc3ccc(OP(=O)(O)O)cc3)NC(C)=O)c2c1`, the Ratio stood at 29.7.

As for `CCCCCN(CCCCC)C(=O)[C@H](CCC(=O)O)NC(=O)[C@H](Cc1ccc(OP(=O)(O)O)cc1)NC(=O)Nc1ccc(OC)cc1`, the Ratio was 13.5.

Turning to `CC(=O)N[C@@H](Cc1ccc(OP(=O)(O)O)cc1)C(=O)N[C@@H](CCC(=O)O)C(=O)N(C)CCc1c[nH]c2ccccc12`, the Ratio was found to be 31.8.

For `CCCCCN(CCCCC)C(=O)[C@H](CCC(=O)O)NC(=O)[C@H](Cc1ccc(OP(=O)(O)O)cc1)NC(=O)C(F)(F)F`, the Ratio was determined as 57.2.

As to `CCCCCN(CCCCC)C(=O)[C@H](CCC(=O)O)NC(=O)[C@H](Cc1ccc(OP(=O)(O)O)cc1)NC(=O)CCc1cccnc1`, the Ratio came out at 17.7.

As to `CCCCCN(CCCCC)C(=O)[C@H](CCC(=O)O)NC(=O)[C@H](Cc1ccc(OP(=O)(O)O)cc1)NC(=O)Cc1ccccc1`, the Ratio was 16.5.

As to `CCCCCN(CCCCC)C(=O)[C@H](CCC(=O)O)NC(=O)[C@H](Cc1ccc(OP(=O)(O)O)cc1)NC(=O)c1ccc(Cl)cc1`, the Ratio stood at 39.

As to `CC(=O)N[C@@H](Cc1ccc(OP(=O)(O)O)cc1)C(=O)N[C@@H](CCC(=O)O)C(=O)N(C)CCCCCCCO`, the Ratio was 3.6.

As for `CCCCCN(CCCCC)C(=O)[C@H](CCC(=O)O)NC(=O)[C@H](Cc1ccc(OP(=O)(O)O)cc1)NC(=O)OCc1ccccc1`, the Ratio was found to be 79.7.

As for `CCCCCN(CCCCC)C(=O)[C@H](CCC(=O)O)NC(=O)[C@H](Cc1ccc(OP(=O)(O)O)cc1)NC(=O)c1ccc([N+](=O)[O-])cc1`, the Ratio was found to be 5.7.

In the case of `CCCCCCN(CCCCCC)C(=O)[C@H](CCC(=O)O)NC(=O)[C@H](Cc1ccc(OP(=O)(O)O)cc1)NC(C)=O`, the Ratio came to 24.

For `CCCCCN(CCCCC)C(=O)[C@H](CCC(=O)O)NC(=O)[C@H](Cc1ccc(OP(=O)(O)O)cc1)NC(=O)CSc1ccccc1`, the Ratio is 17.7.

For the compound `CCCCCN(CCC(=O)O)C(=O)[C@H](CCC(=O)O)NC(=O)[C@H](Cc1ccc(OP(=O)(O)O)cc1)NC(C)=O`, the Ratio amounted to 48.

Regarding `CCCCCN(CCCCC)C(=O)[C@H](CCS(C)(=O)=O)NC(=O)[C@H](Cc1ccc(OP(=O)(O)O)cc1)NC(C)=O`, the Ratio was found to be 75.3.

Regarding `CCCCCN(CCC(=O)OCC)C(=O)[C@H](CCC(=O)O)NC(=O)[C@H](Cc1ccc(OP(=O)(O)O)cc1)NC(C)=O`, the Ratio was found to be 26.

Consider `CCCCCN(CCCCC)C(=O)[C@H](CCC(=O)O)NC(=O)[C@H](Cc1ccc(OP(=O)(O)O)cc1)NC(=O)c1ccc(OC)cc1`, for which the Ratio came out at 7.2.

Regarding `CC(=O)N[C@@H](Cc1ccc(OP(=O)(O)O)cc1)C(=O)N[C@@H](CCC(=O)O)C(=O)N(C)CCCCCCCCO`, the Ratio came to 2.2.

As to `CCCCCN(CCCCC)C(=O)[C@H](CCC(=O)O)NC(=O)[C@H](Cc1ccc(OP(=O)(O)O)cc1)NC(=O)CCCc1ccccc1`, the Ratio was determined as 27.2.

For the compound `CCCCCN(C)C(=O)[C@H](CCC(=O)O)NC(=O)[C@H](Cc1ccc(OP(=O)(O)O)cc1)NC(C)=O`, the Ratio came out at 12.

With `CCCCCN(CCCCC)C(=O)[C@H](CCC(=O)O)NC(=O)[C@H](Cc1ccc(OP(=O)(O)O)cc1)NC(=O)Nc1ccc(N)cc1`, the Ratio turned out to be 26.9.

For `CC(=O)N[C@@H](Cc1ccc(OP(=O)(O)O)cc1)C(=O)N[C@@H](CCC(=O)O)C(=O)N(C)CCCCCCO`, the Ratio was 6.4.

For the origin of these results see ChEMBL document CHEMBL1131573, “Potent dipeptide inhibitors of the pp60c-src SH2 domain” (J Med Chem, 1998).
